Results: patent US10251845B2, “Fatty acid cysteamine conjugates and their use as activators of autophagy” (Catabasis Pharmaceuticals, Inc., priority 2014, dated 2019)
Like-named read-outs stand apart in the source and are kept apart here.

How the values were obtained:
[1] = Oral cannulated rat PK study (portal and jugular vein); assay type: in vivo, Sprague Dawley rats; conditions: for AUC(0-t) / Cmax: Sprague Dawley
Description: The compounds of the invention were solubilized in a mixture of excipients consisting 40% Tween, 50% Peceol, 10% PEG400 and diluted with water to form a self-emulsifying aqueous mixture for oral administration to animals. For this study, Sprague Dawley rats that have been surgically implanted with indwelling jugular vein cannula (JVC) and portal vein cannula (PVC) were used (Agilux, Worcester, Mass.). This approach using double-cannulated rats allowed the measurement of the drug concentration that was delivered in the portal vein as well as the drug concentration that was present in the peripheral. For the PK study, serial blood collection was carried out at both the portal and jugular vein at the following time points: 10, 20, 40 min and 1, 2, 4 and 6 hours post dose. The bioanalytical portion of the PK study was carried out using an LC/MS/MS system (Agilent Model No: HPLC: 1200, MS: 6410) and analyzed with the appropriate software (WinNonlin Phoenix 64 6.3.0 395).

[2] = test system: Matrix Metalloproteinase 2 (MMP-2); test: ELISA of MMP-2 in conditioned media of lung fibroblasts; assay type: cell-based, human; conditions: NLF, LL29 and LL97A cells, 25 μM, in the presence of TGFβ
Description: (§1) Normal human lung fibroblasts (ScienCell Research Laboratory 3420), lung fibroblasts from idiopathic pulmonary fibrosis (IPF) patients LL29 (AnHa) (ATCC) and LL97A (ALMy) (ATCC) were maintained in DMEM F12 (Gibco 10565) supplemented with 15% fetal bovine serum (FBS) (Gibco 10437-028) plus Pen-Strep (1%) (Gibco 15140-122). Cells were split every 3 to 4 days at 1:2/1:3 dilution each time. The day before the experiment, cells were trypsinized using Trypsin-EDTA (0.05%) (Gibco 25300-054) and plated on 24-well […] at 1×10^5 cells per well.
(§2) Compounds II-3 and I-1 were first solubilized in 100% DMSO as 50 mM solution, and then diluted 1 to 200 in 1% BSA as a 10× stock solution of […], and series stock dilution (1 to 2 dilution) were carried out as needed. […] The total RNA was harvested, and the relative mRNA expression levels were assessed via RT-PCR with HPRT as the internal control. […] Significance was determined by student's t-test in comparison to control.
(§3) Conditioned media were collected at the end of the experiment. The levels of Matrix Metalloproteinase 2 (MMP-2) (R&D System MMP200) and human Tissue Inhibitor of Metalloproteinase 2 (TIMP-2) (R&D System DTM200) were measured according to the manufacturer's instruction. […] The ELISA was measured on a Victor×5 multilabel plate reader (PerkinElmer) at an absorbance of 450 nm with background correction at 550 nm. […]

[3] = test system: Tissue Inhibitor of Metalloproteinase 2 (TIMP-2); test: ELISA of TIMP-2 in conditioned media of lung fibroblasts; assay type: cell-based, human; conditions: NLF, LL29 or LL97A cells, 25 μM, in the presence of TGFβ
Description: as §1, §2, §3

[4] = test system: IL-1β; test: RT-PCR of IL-1β mRNA in LPS-stimulated THP-1 cells; assay type: cell-based; conditions: 25 μM, LPS stimulation
Protocol: (§4) THP-1 cells were obtained from ATCC® TIB202. THP-1 cells were maintained in RPMI1640 (Gibco® RPMI 1640) supplemented with 10% fetal bovine serum. DMEM (#11095) and fetal bovine serum (low endotoxin grade) (#10437) was obtained from Invitrogen.
as §2, with “needed. The 10× stock solution were added to the cell media and cells were incubated for 24 hours at 37° C. For LPS stimulation in THP-1 cells, compounds were added to the cell media for 6 hours at and at the end of 4 hours, 50 μg/ml final concentration of LPS (Sigma L3024) was added and cells were incubated for 2 hours.” for “needed.”
(§5) Total RNA was collected using RNeasy Plus Mini Kit (Qiagen #74136) and cDNA generated using SuperScriptIII (Invitrogen #18080-044) with random hexamers following the manufacturer's protocol. Relative mRNA expression levels were determined using TaqMan probes (Applied Biosystems, using the recommended best primer pairs) with HPRT (hypoxanthine phosphoryltransferase) as the internal control. […]

[5] = test system: TNF-α; test: RT-PCR of TNF-α mRNA in LPS-stimulated THP-1 cells; assay type: cell-based; conditions: 25 μM, LPS stimulation
Protocol: as §4
as §2, with “needed. The 10× stock solution were added to the cell media and cells were incubated for 24 hours at 37° C. For LPS stimulation in THP-1 cells, compounds were added to the cell media for 6 hours at and at the end of 4 hours, 50 μg/ml final concentration of LPS (Sigma L3024) was added and cells were incubated for 2 hours.” for “needed.”
as §5

CC/C=C\C/C=C\C/C=C\C/C=C\C/C=C\C/C=C\CCC(=O)NCCSSC(C)(C)CNC(=O)c1cccnc1 [II-3, N-(2-((2-((4Z,7Z,10Z,13Z,16Z,19Z)-docosa-4,7,10,13,16,19-hexaenamido)ethyl)disulfanyl)-2-methylpropyl)nicotinamide]
AUC(0-t) ([1]; jugular vein blood (peripheral), rat, oral, systemic circulation (jugular vein), read-out: peripheral AUClast): 300 ± 103 ng·h/mL
Cmax ([1]; jugular vein blood (peripheral), rat, oral, systemic circulation (jugular vein), read-out: peripheral Cmax): 102 ± 16.9 ng/mL
AUC(0-t) ([1]; portal vein blood, rat, oral, portal vein, read-out: portal AUClast): 679 ± 226 ng·h/mL
Cmax ([1]; portal vein blood, rat, oral, portal vein, read-out: portal Cmax): 331 ± 120 ng/mL
increase in the AUC, II-3 vs II-2 ([1]; dosed orally to rats, Example 23): 100 fold
peripheral Cmax of parent II-3 relative to parent II-2 ([1]; rat, oral): 100 fold
resistance to first pass metabolism ([1]; rat, oral): more resistant
peripheral AUClast ([1]; rat, oral, as restated in Example 23): 102 ng·h/mL
oral exposure in the rat compared with II-2 ([1]; summary of Example 18): better oral exposure
MMP-2 level in conditioned media [2]: marked reduction
TIMP-2 level in conditioned media [3]: marked reduction
IL-1β mRNA level [4]: marked reduction
TNF-α mRNA level [5]: marked reduction
